US20180172683A1, “METHODS FOR ANALYZING THE INTERACTION BETWEEN A TARGET PROTEIN AND A LIGAND” (UNIVERSITY OF SOUTHERN CALIFORNIA, priority 2015, published 2018)
Peptide text beside a SMILES is read from it. * marks the point of attachment. Biotin = O=C1N[C@H]2[C@H](CS[C@H]2CCCCC(=O)*)N1

Experiments:
Bcl-xL [1] = biological target: T1, Bcl-xL (Homo sapiens, UniProt Q07817); test: Equilibrium immunoassays (ELISA and AMMP data combined), Kd of ligands for Bcl-xL; format: binding
T1 construct: The gene for the first 209 amino acids of Bcl-xL; made in house; host or cells: E. coli BL21(DE3), pET24a vector
T1 sequence (Q07817 1-209 limits assumed): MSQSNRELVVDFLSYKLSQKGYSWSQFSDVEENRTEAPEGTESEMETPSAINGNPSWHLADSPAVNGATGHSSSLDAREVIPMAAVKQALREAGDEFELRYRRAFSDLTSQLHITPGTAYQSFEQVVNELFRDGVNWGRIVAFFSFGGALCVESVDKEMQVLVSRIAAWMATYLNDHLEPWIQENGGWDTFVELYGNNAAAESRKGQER
Method: Sample Preparation. A set of serially diluted Bcl-xL standards, at 2× the desired concentration, were made in sample buffer. For each ligand to be tested (such as peptide ligands), a set of dilutions at 2× the desired concentration was also prepared. The Bcl-xL samples were either mixed 1:1 with sample buffer (standards) or ligands (samples), and allowed to incubate at room temperature for 6 days. After the incubation, the standards and samples were analyzed using ELISA or the ViBE BioAnalyzer (FIG. 1).
ELISA Assays. ELISA plates were incubated overnight at 4° C. with 1.5 nmol of streptavidin (for D1 or Bcl-xL capture ligands) or 54H6 mAb in 1×PBS. Plates were washed 3× with wash buffer (1×PBS+0.1% (v/v) Tween-20) and blocked with 1×PBS+5% (w/v) BSA for two hours. For the D1 or Bcl-xL capture ligands, 100 μL of a 30 nM solution of the reagents was added to wells and incubated for 1 hour. This step was skipped for the 54H6 mAb capture ligand (already immobilized on the plate). After the capture ligand incubation, 100 μL of sample or standards were added in each well, and incubated for 1 hour at room temperature. Plates were washed, incubated with HRP-conjugated probe antibody (such as anti-HIS tag antibody) in sample buffer for 1 hour, washed, and incubated with TMB substrate (Thermo Scientific). Reactions were stopped after approximately 10 minutes with 2 M sulfuric acid, and the absorbance at 450 nm was measured via a plate reader (Molecular Devices). The ligand of interest, capture ligand, target protein, and probe ligand used in example ELISA assays performed are highlighted in the table below.
AMMP Assays. For the AMMP assays, 90 μL of each sample or standards was incubated with 30 μL of magnetic beads (12 μg of beads/mL) and fluorescein-labeled antibody (8 nM) in sample buffer for 1 hour. The experiment's run buffer was 1×PBS+1% (v/v) Tween-20+1% (v/v) heat-treated FBS (Invitrogen; FBS was heat treated for 15 minutes at 65° C. and filtered). BioScale Universal Detection Cartridges were used in performing all of the assays. The device was used per the manufacturer's instructions. The ligand of interest, capture ligand, target protein, and probe ligand used in example AMMP assays performed are highlighted in the table below.
Monovalent and Divalent Analysis. The data for both sets of target concentrations were simultaneously fit for Kd (in the Kd only fit) or Kd and Mo. The data was fitted to the equilibrium model using the lowest absolute deviation method, by varying either only Kd or both Kd and [L]0 simultaneously. The monovalent assay fitting was done by Excel Solver (GRG Non-Lin method) using a set of five initial values. The set of values which provided the lowest error after the fitting were chosen as the final values. For the divalent assays, the fitting was performed by MATLAB's fminsearch function and a set of 10 initial values for Kd1, Kd2, and [L]0. […] For the divalent reverse assay, an extra parameter, Cf, was also determined by fitting (FIG. 7 Reverse Assay).
Enzymatic Kd Calculation Assay. The Kd values of ligands of interest were determined using a protocol modified from Friguet et al., Journal of immunological methods, 77, 305-319 (1985). The samples were prepared and analyzed by ELISA assay in a similar process as described above. The OD450 for the standards and their concentration values were fit to a four parameter logistic curve (standard curve). The concentration of the free Bcl-xL in solution (responsible for the signal) for each sample was calculated using the standard curve, and converted into percent of Bcl-xL bound by ligand in solution.

Bcl-xL [2] = biological target: T1, Bcl-xL; test: Radiolabeled off-rate assay on immobilized Bcl-xL; format: binding
Source text: Radiolabeled Off-Rate Assay. The DNA sequences coding for the peptides were ordered from Integrated DNA Technologies (IDT). Each DNA construct contained a T7 RNA Polymerase promoter, and a 5′ deletion mutant of the Tobacco Mosaic Virus (ΔTMV). The C-terminal portion of the peptides were elongated with a flexible serine-glycine linker (six amino acids long) and an HA tag. After gel purification using urea-PAGE, the DNA sequences were PCR amplified using Taq polymerase and in vitro transcribed into mRNA using T7 RNA polymerase. After transcription, the mRNA was urea-PAGE purified and resuspended in deionized water to a final concentration of 30 μM.
The samples were in vitro translated at 30° C. for 1 hour in the translation solution—150 mM KOAc, 750 μM MgCl2, 2 μM mRNA, 1× translation mix (20 mM Hepes-KOH pH 7.6, 100 mM creatine phosphate, 2 mM DTT, and 312.5 μM of each amino acid excluding methionine), ^35S-labeled methionine (Perkin Elmer; 20 μCi for each 25 μL of translation), and 60% (v/v) rabbit reticulocyte lysate. Radiolabeled peptides were purified using magnetic HA beads (Life Technologies) and eluted with 100 μL, 50 mM NaOH, then immediately neutralized with 20 μL of 1 M Tris-HCl, pH 8.0.
The radiolabeled peptides were allowed to bind to 30 pmol immobilized Bcl-xL for 1 hour in sample buffer (1×PBS, 1% (w/v) BSA, 0.1% (v/v) Tween 20, 10 μM biotin). The beads were magnetically separated, and washed 5× with sample buffer. The beads were resuspended in 1 mL of sample buffer containing 3 μM non-biotinylated Bcl-xL (˜100× molar excess relative to immobilized biotinylated Bcl-xL). At various time points, 100 μL of slurry was removed and the beads were magnetically separated and washed. The percent remaining at each time point was determined by dividing the counts per minute (cpm) on beads by total cpm (beads+washes). The peptide off-rate was determined by an exponential fit of the Percent counts on beads vs. Time (s).
The peptide ligands were made using a C-terminal HA tag, and affinity purified.

streptavidin = streptavidin (Streptomyces avidinii, UniProt P22629); conditions: literature reference value, Piran et al. 1990; cited from earlier work
streptavidin, sequence (P22629 25-183, species assumed): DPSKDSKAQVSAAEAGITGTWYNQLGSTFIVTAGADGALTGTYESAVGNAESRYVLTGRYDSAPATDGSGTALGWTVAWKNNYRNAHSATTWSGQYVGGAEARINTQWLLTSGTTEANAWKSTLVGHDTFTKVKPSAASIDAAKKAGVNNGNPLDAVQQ

Bcl-xL [3] = biological target: T1, Bcl-xL; test: High-throughput sequencing kinetic (HTSK) on- and off-rates of mRNA-peptide fusions; format: binding
Method: Preparing the pools of fusion ligands. The DNAs for the final enriched pools from the extension and the doped selection against Bcl-xL were generated. The DNA pools were PCR amplified using Taq polymerase and in vitro transcribed into mRNA using T7 RNA polymerase (Liu et al., Methods Enzymol. 318, 268-293 (2000)). After transcription, the mRNA was urea-PAGE purified and resuspended in deionized water to a final concentration of 30 μM. The mRNA was then ligated to fluorescein-F30P (phosphate-dA21-[dT-fluor]-[C9]3-dAdCdCP; where [dT-fluor] is fluorescein dT (Glen Research), [C9] is spacer 9 (Glen Research), and P is puromycin (Glen Research); synthesized at the Keck Oligo Facility at Yale) using T4 DNA ligase (Takahashi et al., Methods Mol. Biol. 535, 293-314 (2009)). The ligation was performed using a splint complementary to the 3′ end of the RNA and the 5′ end of the DNA-linker. The ligated mRNA was urea-PAGE purified and resuspended in deionized water to final concentration of 30 μM. The samples were in vitro translated in the translation solution-150 mM KOAc, 750 μM MgCl2, 2 μM mRNA, in 1× translation mix (20 mM Hepes-KOH pH 7.6, 100 mM creatine phosphate, 2 mM DTT, and 312.5 μM of each amino acid) and 60% (v/v) rabbit reticulocyte lysate. To prepare radiolabeled peptides or proteins, non-labeled methionine was substituted with ^35S-labeled methionine (Perkin Elmer; 20 μCi for each 25 μL of translation). The translation reactions were incubated at 30° C. for one hour. To form mRNA-protein fusions, KCl and MgCl2 were added to the reaction to final concentrations of 250 mM and 30 mM respectively after translation, and the samples were frozen at −20° C.
To purify the fusion molecules, 100 μL of dT cellulose (25% (v/v) slurry, GE Healthcare) in isolation buffer (100 mM Tris-HCl pH 8.0, 1 M NaCl, 0.2% (v/v) Triton X-100) was added and incubated for 1 hour. The beads were washed five times with 700 μL of isolation buffer, and the fusions were eluted with 3×80 μL of 65° C. water and desalted through Centrisep columns (Princeton Separations). The desalted fusions were adjusted to 1×RT buffer (50 mM Tris-HCl pH 8.3, 75 mM KCl, 3 mM MgCl2, […], […],) and the sample was heated to 65° C. for 5 minutes and cooled on ice to anneal the 3′ primer. After cooling, […] of Superscript II enzyme was added and the reaction incubated at 42° C. for one hour. […]
On- and off-rate experiments. […] The radiolabeled samples were washed 3×, and the beads were counted via a scintillation counter.
To obtain the HTSK off-rates, after the kinetic on-rate experiment, the remaining beads were washed 5× with selection buffer. […] The radiolabeled samples were washed and counted via a scintillation counter. […]

CC[C@H](C)[C@H](NC(=O)[C@@H](NC(=O)[C@@H](NC(=O)[C@@H](NC(=O)[C@H](CCC(=O)O)NC(=O)[C@@H](NC(=O)[C@@H](N)CCSC)[C@@H](C)CC)[C@@H](C)O)[C@@H](C)CC)[C@@H](C)O)C(=O)N[C@@H](Cc1ccc(O)cc1)C(=O)N[C@@H](CCCCN)C(=O)N[C@@H](Cc1ccc(O)cc1)C(=O)N[C@@H](CCCCN)C(=O)N[C@@H](CCCCN)C(=O)N[C@@H](C)C(=O)N[C@@H](C)C(=O)N[C@@H](CC(=O)O)C(=O)N[C@@H](Cc1c[nH]cn1)C(=O)N[C@@H](Cc1ccccc1)C(=O)N[C@@H](CO)C(=O)N[C@@H](CCSC)C(=O)N[C@@H](CO)C(=O)N[C@@H](CCSC)C(=O)NCC(=O)N[C@@H](CO)C(=O)N[C@@H](CCCCNC(=O)CCCC[C@@H]1SC[C@@H]2NC(=O)N[C@@H]21)C(N)=O [E2] (H-MIETITIYKYKKAADHFSMSMGSK(Biotin)-NH2)
kon (Bcl-xL [1]): 53000 M⁻¹ s⁻¹ | Kd (Bcl-xL [1]; Kd, equilibrium ELISA/AMMP assays (Table 1 values)): 300 pM | Ratio of Fit [L]0 to Known [L]0 (Bcl-xL [1]; simultaneous fit of Kd and [L]0, mean ± standard error): 96% ± 40% | koff (Bcl-xL [2]; radiolabeled peptide-mRNA fusions bound to immobilized Bcl-xL, read-out: koff): 1.6e-05 s⁻¹

O=C(O)CCCC[C@@H]1SC[C@@H]2NC(=O)N[C@@H]21 [biotin]
slowest reported off-rate of biotin and streptavidin (streptavidin): 2.4×10^−6

MIDTNVILNYKKAADHFSITMGSK [D79]
Peptide koff (Bcl-xL [2]; in vitro translated radiolabeled peptides with C-terminal HA tag): 5.9e-07 s⁻¹ | koff value (Bcl-xL [2]; radiolabeled peptide, unit not given): 5.9×10^−7 | Kd (Bcl-xL [3]; from HTSK on- and off-rates): 2.4 pM | HTSK koff (Bcl-xL [3]; mRNA-peptide fusions, next-generation sequencing): 3.3e-07 s⁻¹
